System: Pa
Experiment: OECD Quantitative Method for Evaluating Bactericidal Activity of Microbiocides Used on Hard, Non-Porous Surfaces
Assay type: cell-based, Pseudomonas aeruginosa
Conditions: for level of efficacy / number of organisms reduced (in words): quaternary ammonium acid compounds based on different acids, summary of the OECD tests
Source text: One acknowledged method for determining micro efficacy is the OECD (Organisation for Economic Co-operation and Development) Quantitative Method for Evaluating Bactericidal Activity of Microbiocides Used on Hard, Non-Porous Surfaces. This method entails inoculating small, stainless steel disks called carriers with inoculum, in the presence of hard water. It is theorized that microorganisms, such as pseudomonas, form a biofilm on these carriers. Due to the size of the disk, the presence of a biofilm and the surface tension of the liquid on the disk, this requires qua-based systems to be generally over-formulated to achieve the required efficacy to pass testing. This provides an unfair advantage to both acids and oxidizers used as biocides because of their innate ability to oxidize steel, remove the biofilm without being affected by hard water. This invention combats this issue by combining the biocidal power of quaternary ammonium compound with the oxidizing power of acid.

[1] = 800 ppm Active/375 ppm Hard Water/5% Organic Soil/5 Minute Contact Time

Compound	OECD results of Quaternium Ammonium Acid Molecule, Test 1 [1]	level of efficacy / number of organisms reduced (in words)	OECD results of Quaternium Ammonium Acid Molecule, Test 2 [1]	also measured
CCCCCCCCCC[N+](C)(C)CCCCCCCCCC.O=C([O-])CO [Glycolic]	1.99	–	–	–
CCCCCCCCCC[N+](C)(C)CCCCCCCCCC.NS(=O)(=O)[O-] [Sulfamic]	4.66	greatest level of efficacy	–	level of efficacy / number of organisms reduced (in words) (listed as sulfamic acid): highest number of organisms reduced
O=C(O)C(O)C(O)C(=O)O (stereo not drawn) [Tartaric]	4.22	greatest level of efficacy	3.05	level of efficacy / number of organisms reduced (in words) (listed as tartaric acid): highest number of organisms reduced
Oxalic	5.54	greatest level of efficacy	–	level of efficacy / number of organisms reduced (in words) (listed as oxalic acid): highest number of organisms reduced
CC(=O)[O-].CCCCCCCCCC[N+](C)(C)CCCCCCCCCC [Acetic]	5.71	greatest level of efficacy	4.93	level of efficacy / number of organisms reduced (in words) (listed as acetic acid): highest number of organisms reduced
CCCCCCCCCC[N+](C)(C)CCCCCCCCCC.O=[N+]([O-])[O-] [Nitric]	1.94	–	–	–
Sulfuric	3.14	–	–	–
O=P(O)(O)O [Phosphoric]	–	greatest level of efficacy	4.93	level of efficacy / number of organisms reduced (in words) (listed as phosphoric acid): highest number of organisms reduced
didecyl dimethyl ammonium carbonate/bicarbonate [Quat Carbonate, reference compound]	–	–	–	Log10 Reduction vs. Pa (Quaternium Ammonium Chloride in Acid Solution, 800 ppm Active/375 ppm Hard Water/5% Organic Soil/5 Minute Contact Time): <2.82 Log10

From US20150223453A1, “QUATERNARY AMMONIUM ACID COMPOUNDS AND COMPOSITIONS FOR DISINFECTION, SANITIZATION, AND CLEANING” (LONZA INC., priority 2014, published 2015)
